Each structure is given as a SMILES string. Positions of bridges follow the written chain, without caps; N, C: chain ends. Non-standard residues stand in square brackets, D forms with d. Residues, ends and D or L forms follow the SMILES beside them. *: point of attachment. Dihydroorotyl(S) = O=C1C[C@@H](C(=O)*)NC(=O)N1; Phe(3-Cl) = N[C@@H](Cc1cccc(Cl)c1)C(=O)O; Phe(3-OMe) = COc1cccc(C[C@H](N)C(=O)O)c1; Phe(3-F) = N[C@@H](Cc1cccc(F)c1)C(=O)O; Phe(4-F) = N[C@@H](Cc1ccc(F)cc1)C(=O)O; 1Nal = N[C@@H](Cc1cccc2ccccc12)C(=O)O; Bta = N[C@@H](Cc1csc2ccccc12)C(=O)O; Hyp = O=C(O)[C@@H]1C[C@@H](O)CN1; d(hLeu) = CC(C)CC[C@@H](N)C(=O)O; Cit = NC(=O)NCCC[C@H](N)C(=O)O; dCha = N[C@H](CC1CCCCC1)C(=O)O; Chg = N[C@H](C(=O)O)C1CCCCC1; NMeA = CN[C@@H](C)C(=O)O; Orn = NCCC[C@H](N)C(=O)O; Aze = O=C(O)[C@@H]1CCN1; tBu = CC(C)(C)*

The target of the assay is T1, human C5aR(CD88) (Homo sapiens, UniProt P21730).
T1 construct: expressed in transfected cells; host or cells: rat basophilic leukemia cells (RBL)
T1 sequence (P21730 1-350): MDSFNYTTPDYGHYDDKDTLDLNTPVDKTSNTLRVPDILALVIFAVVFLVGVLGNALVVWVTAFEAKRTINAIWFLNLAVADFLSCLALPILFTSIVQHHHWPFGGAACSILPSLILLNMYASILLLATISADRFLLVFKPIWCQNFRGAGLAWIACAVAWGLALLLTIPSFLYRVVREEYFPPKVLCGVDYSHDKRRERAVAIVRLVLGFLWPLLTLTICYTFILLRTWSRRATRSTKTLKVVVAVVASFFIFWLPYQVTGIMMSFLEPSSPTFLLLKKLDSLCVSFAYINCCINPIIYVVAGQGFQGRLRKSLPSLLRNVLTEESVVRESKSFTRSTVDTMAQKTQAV
Briefly: Determination of the IC50 value in an enzyme release assay (functional assay, antagonistic activity). Type of assay: cell-based. To be noted: antagonistic activity; IC50 group in enzyme release assay, RBL cells expressing human C5aR(CD88); read-out: activity (group).
Turning to `CC(=O)N[C@@H](CO)C(=O)N[C@@H](Cc1ccccc1)C(=O)N[C@@H](CCCN)C(=O)N1CC[C@H]1C(=O)N[C@H](CC1CCCCC1)C(=O)N[C@@H](Cc1csc2ccccc12)C(=O)N[C@@H](Cc1ccccc1)C(N)=O` [Compound 310, Ac-Ser-Phe-Orn-Aze-cha-Bta-Phe-NH2] (Ac-SF[Orn][Aze][dCha][Bta]F-NH2), the IC50 was 10 to 20 nM.
The result for `COc1cccc(C[C@H](NC(=O)[C@H](Cc2ccc(F)cc2)NC(=O)[C@@H](CCC(C)C)NC(=O)[C@@H]2CCCN2C(=O)[C@H](CCCN)NC(=O)[C@H](Cc2ccccc2)NC(C)=O)C(N)=O)c1` [Compound 300, Ac-Phe-Orn-Pro-hle-Pff-Mmy-NH2] (Ac-F[Orn]P[d(hLeu)][Phe(4-F)][Phe(3-OMe)]-NH2) reads 50 to 200 nM; that for `CC(=O)N[C@@H](Cc1ccccc1)C(=O)N[C@H]1CCCNC(=O)[C@H](C2CCCCC2)NC(=O)[C@H](Cc2c[nH]c3ccccc23)NC(=O)[C@@H](CC2CCCCC2)NC(=O)[C@@H]2CCCN2C1=O` [Compound 190, Ac-Phe-[Orn-Pro-cha-Trp-Chg]] (Ac-F[Orn]P[dCha]W[Chg]; lactam 2-C), 50 to 200 nM.
To `CC(=O)N[C@@H](Cc1ccccc1)C(=O)N[C@@H](CCCN)C(=O)N(C)[C@@H](C)C(=O)N[C@H](CC1CCCCC1)C(=O)N[C@@H](Cc1csc2ccccc12)C(=O)N[C@@H](Cc1ccccc1)C(N)=O` [Compound 246, Ac-Phe-Orn-NMA-cha-Bta-Phe-NH2] (Ac-F[Orn][NMeA][dCha][Bta]F-NH2) belongs 50 to 200 nM; to `CC(=O)N[C@@H](Cc1ccccc1)C(=O)N[C@H]1CCCNC(=O)[C@H](Cc2ccccc2)NC(=O)[C@H](Cc2cccc(Cl)c2)NC(=O)[C@@H](CCC(C)C)NC(=O)[C@@H]2C[C@@H](O)CN2C1=O` [Compound 178, Ac-Phe-[Orn-Hyp-hle-Mcf-Phe]] (Ac-F[Orn][Hyp][d(hLeu)][Phe(3-Cl)]F; lactam 2-C), 50 to 200 nM.
The result for `CC(=O)N[C@@H](Cc1cccc(F)c1)C(=O)N[C@@H](CCCN)C(=O)N1CCC[C@H]1C(=O)N[C@H](CCC(C)C)C(=O)N[C@@H](Cc1csc2ccccc12)C(=O)N[C@@H](Cc1ccccc1)C(N)=O` [Compound 162, Ac-Mff-Orn-Pro-hle-Bta-Phe-NH2] (Ac-[Phe(3-F)][Orn]P[d(hLeu)][Bta]F-NH2) reads 50 to 200 nM; that for `CC(C)CC[C@@H](NC(=O)[C@@H]1CCCN1C(=O)[C@H](CCCNC(N)=O)NC(=O)[C@H](Cc1ccccc1)NC(=O)[C@@H]1CC(=O)NC(=O)N1)C(=O)N[C@@H](Cc1ccc(F)cc1)C(=O)N[C@@H](Cc1ccccc1)C(N)=O` [Compound 348, Hoo-Phe-Cit-Pro-hle-Pff-Phe-NH2] ({Dihydroorotyl(S)}-F[Cit]P[d(hLeu)][Phe(4-F)]F-NH2), 50 to 200 nM.
Regarding `CC(=O)N[C@@H](Cc1ccccc1)C(=O)N[C@H]1CCCNC(=O)[C@H](Cc2cccc3ccccc23)NC(=O)[C@H](Cc2c[nH]c3ccccc23)NC(=O)[C@@H](CC2CCCCC2)NC(=O)[C@@H]2CCCN2C1=O` [Compound 188, Ac-Phe-[Orn-Pro-cha-Trp-1Ni]] (Ac-F[Orn]P[dCha]W[1Nal]; lactam 2-C), the IC50 lay within 50 to 200 nM.
To `CC(C)(C)SC[C@H]1NC(=O)[C@@H]2C[C@@H](O)CN2C(=O)[C@@H](NC(=O)[C@@H](N)Cc2ccccc2)CCCNC(=O)[C@H](Cc2ccccc2)NC(=O)[C@H](Cc2c[nH]c3ccccc23)NC1=O` [Compound 360, H-Phe-[Orn-Hyp-ctb-Trp-Phe]] (H-F[Orn][Hyp][dC](tBu)WF; lactam 2-C) belongs 20 to 50 nM.
Turning to `CC(=O)N[C@@H](CCCCN)C(=O)N[C@@H](Cc1ccccc1)C(=O)N[C@@H](CCCN)C(=O)N1CC[C@H]1C(=O)N[C@H](CC1CCCCC1)C(=O)N[C@@H](Cc1csc2ccccc12)C(=O)N[C@@H](Cc1ccccc1)C(N)=O` [Compound 135, Ac-Lys-Phe-Orn-Aze-cha-Bta-Phe-NH2] (Ac-KF[Orn][Aze][dCha][Bta]F-NH2), the IC50 was 10 to 20 nM.

These data come from patent US20080161232A1, “C5a Receptor Antagonist” (JERINI AG, priority 2005, published 2008).
